Experimental data reported in patent US9328083B2, “2-aminated methylene or 2-esterified methylene tanshinone derivatives, and preparation method and application thereof” (HANGZHOU BENSHENG PHARMACEUTICAL CO., LTD., priority 2011, dated 2016).
≈ marks a conversion by molar mass, not a printed value.

Legend:
[1] = system: H9 (acute lymphoblastic leukemia, ALL); test: MTT growth inhibition of leukemia cells, 72 h; format: cell-based, human; settings: Homo sapiens, H9, 72 h; for IC50: read-out: IC50; for IC90: read-out: IC90
Procedure, shortened: (§1)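 6000 cells/well, RPMI-1640 + 10% FBS; compounds added day 2 (DMSO stock 10 mg/mL, diluted in medium); 72 h, 37 °C, 5% CO2; MTT read-out of viable cells.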

[2] = system: NB4 (acute promyelocytic leukemia, AML); test: MTT growth inhibition of leukemia cells, 72 h; format: cell-based, human; settings: Homo sapiens, NB4, 72 h; for IC50: read-out: IC50; for IC90: read-out: IC90
Procedure, shortened: as §1

[3] = system: K562/adr (drug-resistant, chronic myeloid leukemia, CML); test: MTT growth inhibition of leukemia cells, 72 h; format: cell-based, human; settings: Homo sapiens, K562/Adr; for IC50: read-out: IC50; for IC90: read-out: IC90
Procedure, shortened: as §1

[4] = system: Jurkat (acute lymphoblastic leukemia, ALL); test: MTT growth inhibition of leukemia cells, 72 h; format: cell-based, human; settings: for IC50 / IC90: Homo sapiens, 72 h; for IC50: read-out: IC50; for IC90: read-out: IC90
Procedure, shortened: as §1

[5] = system: Kasumi-1 (acute myeloid leukemia M2 type, AML-M2); test: MTT growth inhibition of leukemia cells, 72 h; format: cell-based, human; settings: Homo sapiens, Kasumi-1, 72 h; for IC50: read-out: IC50; for IC90: read-out: IC90
Procedure, shortened: as §1

[6] = system: RPMI8226 (multiple myeloma); test: MTT growth inhibition of multiple myeloma cells, 72 h; format: cell-based, human; settings: Homo sapiens, RPMI 8226, 72 h; for IC50: read-out: IC50; for IC90: read-out: IC90
Procedure, shortened: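 Viability read by MTT after 72 h at 37° C, 5% CO2: compounds from a 10 mg/mL DMSO stock were diluted in medium and added at several concentrations to 6000 RPMI8226 cells per well in 1640 medium plus 10% FBS.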

[7] = system: Hep G2 (human liver cancer cell); test: MTT growth inhibition of human solid tumor cells, 72 h; format: cell-based; settings: Homo sapiens, HepG2, Hep G2, 72 h; for IC50: read-out: IC50; for IC90: read-out: IC90
Procedure, shortened: (§2)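 We plate 4000 cells into each well, culture them 24 h (37° C, 5% CO2, DMEM High Glucose plus 10% fetal bovine serum), add compound dilutions, mix uniformly and measure viable cell concentration.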

PC-3 (prostate cancer) = test: as above; format: cell-based; settings: Homo sapiens, PC-3, 72 h; for IC50: read-out: IC50; for IC90: read-out: IC90
Procedure, shortened: as §2

[8] = system: U87 MG (malignant glioma cell); test: as above; format: cell-based; settings: Homo sapiens, U-87 MG, U87-MG, 72 h; for IC50: read-out: IC50; for IC90: read-out: IC90
Procedure, shortened: as §2

[9] = system: RKO (human colon adenocarcinoma cell); test: as above; format: cell-based; settings: Homo sapiens; for IC50: read-out: IC50; for IC90: read-out: IC90
Procedure, shortened: as §2

[10] = system: Hela (human cervical cancer cell); test: as above; format: cell-based; settings: Homo sapiens, HeLa, 72 h; for IC50: read-out: IC50; for IC90: read-out: IC90
Procedure, shortened: as §2

[11] = system: CaES-17 (esophageal cancer cell); test: as above; format: cell-based; settings: for IC50 / IC90: Homo sapiens, CaEs17, CaEs-17, 72 h; for IC50: read-out: IC50; for IC90: read-out: IC90
Procedure, shortened: as §2

MG63 (osteosarcoma) = test: as above; format: cell-based; settings: Homo sapiens, MG-63, 72 h; for IC50: read-out: IC50; for IC90: read-out: IC90
Procedure, shortened: as §2

A549 (human lung cancer) = test: as above; format: cell-based; settings: Homo sapiens, A549, 72 h; for IC50: read-out: IC50; for IC90: read-out: IC90
Procedure, shortened: as §2

[12] = system: Becap37 (human breast cancer cell); test: as above; format: cell-based; settings: Homo sapiens, Becap-37, 72 h; for IC50: read-out: IC50; for IC90: read-out: IC90
Procedure, shortened: as §2

[13] = system: MGC 803 (human gastric cancer cell); test: as above; format: cell-based; settings: Homo sapiens, MGC-803, 72 h; for IC50: read-out: IC50; for IC90: read-out: IC90
Procedure, shortened: as §2

[14] = system: CNE (nasopharyngeal carcinoma cell); test: as above; format: cell-based; settings: Homo sapiens; for IC50: read-out: IC50; for IC90: read-out: IC90
Procedure, shortened: as §2

[15] = system: SK-OV-3 (ovarian cancer cell); test: as above; format: cell-based; settings: Homo sapiens, SK-OV-3, 72 h; for IC50: read-out: IC50; for IC90: read-out: IC90
Procedure, shortened: as §2

[16] = system: Hep-2 (laryngeal carcinoma); test: as above; format: cell-based; settings: Homo sapiens, HEp-2, 72 h; for IC50: read-out: IC50; for IC90: read-out: IC90
Procedure, shortened: as §2

[17] = system: PANC-1 (pancreatic cancer); test: as above; format: cell-based; settings: for IC50 / IC90: Homo sapiens, PANC-1, 72 h; for IC50: read-out: IC50; for IC90: read-out: IC90
Procedure, shortened: as §2

Cc1c(CN(C)CCO)oc2c1C(=O)C(=O)c1c-2ccc2c(C)cccc12 [BS-TA-B17]
IC50 [1]: 0.45 µg/mL (≈ 1.24 µM) | IC90 [1]: 0.96 µg/mL (≈ 2.64 µM) | IC50 [2]: 0.14 µg/mL (≈ 0.385 µM) | IC90 [2]: 0.41 µg/mL (≈ 1.13 µM) | IC50 [3]: 0.31 µg/mL (≈ 0.853 µM) | IC90 [3]: 0.86 µg/mL (≈ 2.37 µM) | IC50 [4]: 0.16 µg/mL (≈ 0.44 µM) | IC90 [4]: 0.36 µg/mL (≈ 0.991 µM) | improvement of anti-Jurkat activity as compared with tanshinone I ([4]; vs tanshinone I): more than 10 fold | IC50 [5]: 0.12 µg/mL (≈ 0.33 µM) | IC90 [5]: 0.23 µg/mL (≈ 0.633 µM) | IC50 [6]: 0.39 µg/mL (≈ 1.07 µM) | IC90 [6]: 0.8 µg/mL (≈ 2.2 µM) | IC50 [7]: 0.56 µg/mL (≈ 1.54 µM) | IC90 [7]: 1.82 µg/mL (≈ 5.01 µM) | IC50 (PC-3 (prostate cancer)): 0.63 µg/mL (≈ 1.73 µM) | IC90 (PC-3 (prostate cancer)): 2 µg/mL (≈ 5.5 µM) | IC50 [8]: 0.76 µg/mL (≈ 2.09 µM) | IC90 [8]: 1.82 µg/mL (≈ 5.01 µM) | IC50 [9]: 0.125 µg/mL (≈ 0.344 µM) | IC90 [9]: 1.3 µg/mL (≈ 3.58 µM) | IC50 [10]: 0.67 µg/mL (≈ 1.84 µM) | IC90 [10]: 1.8 µg/mL (≈ 4.95 µM) | improvement of anti-CaES-17 activity as compared with tanshinone I ([11]; CaES-17, vs tanshinone I): more than 7 fold | IC50 [11]: 0.45 µg/mL (≈ 1.24 µM) | IC90 [11]: 0.91 µg/mL (≈ 2.5 µM) | IC50 (MG63 (osteosarcoma)): 0.78 µg/mL (≈ 2.15 µM) | IC90 (MG63 (osteosarcoma)): 1.76 µg/mL (≈ 4.84 µM) | IC50 (A549 (human lung cancer)): 0.83 µg/mL (≈ 2.28 µM) | IC90 (A549 (human lung cancer)): 3.13 µg/mL (≈ 8.61 µM) | IC50 [12]: 0.76 µg/mL (≈ 2.09 µM) | IC90 [12]: 1.77 µg/mL (≈ 4.87 µM) | IC50 [13]: 0.37 µg/mL (≈ 1.02 µM) | IC90 [13]: 2.94 µg/mL (≈ 8.09 µM) | IC50 [14]: 1.4 µg/mL (≈ 3.85 µM) | IC90 [14]: 3 µg/mL (≈ 8.26 µM) | IC50 [15]: 1.44 µg/mL (≈ 3.96 µM) | IC90 [15]: 1.97 µg/mL (≈ 5.42 µM) | IC50 [16]: 0.87 µg/mL (≈ 2.39 µM) | IC90 [16]: 2.79 µg/mL (≈ 7.68 µM) | IC50 [17]: 0.27 µg/mL (≈ 0.743 µM) | IC90 [17]: 2.6 µg/mL (≈ 7.15 µM) | improvement of anti-PANC-1 activity as compared with tanshinone I ([17]; PANC-1, vs tanshinone I): more than 10 fold

C#CCNCc1oc2c(c1C)C(=O)C(=O)c1c-2ccc2c(C)cccc12 [BS-TA-B21]
IC50 [1]: 2.2 µg/mL (≈ 6.41 µM) | IC90 [1]: 5.9 µg/mL (≈ 17.2 µM) | IC50 [2]: 1.53 µg/mL (≈ 4.46 µM) | IC90 [2]: 5.46 µg/mL (≈ 15.9 µM) | IC50 [3]: 1.3 µg/mL (≈ 3.79 µM) | IC90 [3]: 2.73 µg/mL (≈ 7.95 µM) | IC50 [4]: 3.41 µg/mL (≈ 9.93 µM) | IC90 [4]: 9.55 µg/mL (≈ 27.8 µM) | IC50 [5]: 0.83 µg/mL (≈ 2.42 µM) | IC90 [5]: 1.8 µg/mL (≈ 5.24 µM) | IC50 [6]: 5.78 µg/mL (≈ 16.8 µM) | IC90 [6]: 10.5 µg/mL (≈ 30.5 µM) | IC50 [7]: 7.3 µg/mL (≈ 21.3 µM) | IC90 [7]: 25.8 µg/mL (≈ 75 µM) | IC50 (PC-3 (prostate cancer)): 7.3 µg/mL (≈ 21.3 µM) | IC90 (PC-3 (prostate cancer)): 15.1 µg/mL (≈ 44 µM) | IC50 [8]: 6.79 µg/mL (≈ 19.8 µM) | IC90 [8]: 21.3 µg/mL (≈ 62.1 µM) | IC50 [9]: 2.46 µg/mL (≈ 7.16 µM) | IC90 [9]: 27.9 µg/mL (≈ 81.1 µM) | IC50 [10]: 3.3 µg/mL (≈ 9.61 µM) | IC90 [10]: 7.9 µg/mL (≈ 23 µM) | IC50 [11]: 8.71 µg/mL (≈ 25.4 µM) | IC90 [11]: 14.2 µg/mL (≈ 41.5 µM) | IC50 (MG63 (osteosarcoma)): 4.68 µg/mL (≈ 13.6 µM) | IC90 (MG63 (osteosarcoma)): 15.3 µg/mL (≈ 44.6 µM) | IC50 (A549 (human lung cancer)): 1.8 µg/mL (≈ 5.24 µM) | IC90 (A549 (human lung cancer)): 10 µg/mL (≈ 29.1 µM) | IC50 [12]: 6.73 µg/mL (≈ 19.6 µM) | IC90 [12]: 15.1 µg/mL (≈ 43.9 µM) | IC50 [13]: 7.01 µg/mL (≈ 20.4 µM) | IC90 [13]: 17.3 µg/mL (≈ 50.4 µM) | IC50 [14]: 5.99 µg/mL (≈ 17.4 µM) | IC90 [14]: 79 µg/mL (≈ 230 µM) | IC50 [15]: > 16 µg/mL | IC90 [15]: > 16 µg/mL | IC50 [16]: 5.16 µg/mL (≈ 15 µM) | IC90 [16]: 23.7 µg/mL (≈ 69 µM) | IC50 [17]: 1.14 µg/mL (≈ 3.32 µM) | IC90 [17]: 7.28 µg/mL (≈ 21.2 µM)
